Data as given in patent publication US9885060B2, “Alkene production” (Evonik Degussa GmbH, priority 2015, dated 2018).

Columns and labels:
[1] = tested on: OleT; assay: Decarboxylation of FAs C22 to C4 employing the FDH-CamAB-OleT redox-cascade; format: biochemical; conditions: for Conversion / α-Olefin: 10 mM substrate
Experimental: Enzymatic reactions (1 mL scale) were quenched by addition of 100 μL 5 N Extraction of substrate and products was performed with 500 μL EtOAc containing 0.1% 1-decanol as internal standard. The organic phase was dried over anhydrous Na2SO4. Derivatization of carboxylic acids (fatty acids and hydroxy acids) to the corresponding methyl esters was achieved by mixing the organic phase with MeOH (2.5:1.5 v/v) followed by supplementation of 5 to 15 μL of 2 M TMSCHN2 (trimethylsilyldiazomethane in diethyl ether). The mixture was incubated for 30 min, 25° C. and 750 rpm before injection into GC-FID or GC-MS, Extraction and derivatization of products and substrates from conversion of short chain FAs ([…]) was performed using the same protocol but all steps were performed on ice to prevent undesired loss of volatile products.
Products from FA substrates with chain lengths ranging from C22 to C10 were separated on a HP5 column (Programm) and detected by GC-FID or GC-MS. Extracted products from conversion of nonanoic acid (I-octene as product) were separated on a DB1702 column (Programm) and detected by GC-FID. Authentic standards of substrates and terminal olefins were treated as described above and were used as references for identification and preparation of calibration curves. Detection of volatile short chain terminal olefins (1-butene/1-propene [ongoing] to 1-heptene) was accomplished by manual injection from vial headspaces into GC-MS, in order to prevent loss of products, the vials containing the reaction mixtures were sealed with a PTFE septum. After conversion the closed vial was heated for 10 min at 80° C., together with a 10 ml syringe (TYPE). From the headspace 2 to 9 μl volumes were injected splitless into a GC-MS chromatograph and analytes were separated on a HP5 column (Programm). Calibration curves for 1-pentene, 1-hexene and 1-heptene were prepared in the same way at 4° C. and using 5% DMF as cosolvent.
The substrate scope of OleT was further investigated by varying the FA chain length from C3 to C22. […] For the first time, short EAs could be decarboxylated to the corresponding olefins, covering the whole spectrum from C11 down to C4. […] Due to the high volatility of short chain olefins, product work up was done at 4° C. […] (2.53 mM product from 5 mM lauric acid). Head-space analysis by GC-MS from reactions with short chain FAs (C8-C5) confirmed the formation of the respective α-olefins, allowing the first biotechnological access to 1-heptene, 1-hexene and 1-pentene and 1-butene with OleT.
Conversion of heptanoic acid was carried out as described in Example 4 using the OleTCamAB-FDH reaction cascade.
Calibration curves for 1-hexene were prepared accordingly ranging from 0.05 to 2 mM. Due to a strong overlap of […] with the peak areas of CO2 and EtOH (FIG. 1, peaks a, b and c) the ion extraction mode of the GC-MS to generate reliable calibration curves was used. Neither CO2 nor EtOH interfered with the product peak area. This can be seen comparing FIGS. 1 and 5 which allow reliable and linear quantification of 1-hexene (FIG. 6) using manual headspace GC-MS injection.
Manual headspace injection into GC-MS was successfully performed for all substrates with chain lengths of C11 to C6. Conversion of 10 mM heptanoic acid allowed reliable formation of up to 1.3 mM 1-hexene without further optimization of the reaction conditions.

[2] = tested on: OleT; assay: Trapping, derivatization (Br2/DCM impinger) and quantification of 1-butene and 1-propene formed by the OleT-CamAB-FDH cascade; format: biochemical; conditions: 10 mM substrate, 10 ml scale
Experimental: FIG. 7 is a picture of a novel reaction set up for trapping volatile α-olefins, such as 1-propene and 1-butene. A small impinger containing 10 ml of a 20 mM Br2/DCM solution was placed on top of the flask serving as sole gas outlet and trap for α-olefin products. The functionality of this system was successfully confirmed using an analytical standard of 1-heptene. The concept for derivatization and trapping of volatile α-olefins is shown in Scheme 2.
Production of 1-propene and 1-butene was initially confirmed using manual headspace GC-MS injection. Since the quantification of 1-propene and 1-butene using analytical standards was not feasible, a novel trapping/derivatization system for highly volatile short-chain α-olefins derived from biocatalytic reactions was designed. […]
The obtained products were analyzed by GC-FID and GC-MS using analytical standards of 1,2-dibromobutane and 1,2-dibromopropane. Due to the (visible) gas exhaust (CO2 production by OleT and FDH) and strong evaporation of DCM (˜70% volume lost after 24 h), the residual volume in the impinger was determined to allow reliable product quantification. Calibration curves for 1,2-dibromobutane and 1,2-dibromopropane were prepared to allow quantification of produced 1-propene and 1-butene (not shown). […]

CCCC(=O)O [C4, butyric acid]
Conversion ([1]; 25 °C, 24 h): 5% | α-Olefin ([1]; 25 °C, 24 h): 504 µM | α-olefin formed (trapped as 1,2-dibromoalkane) [2]: 504 µM

CCCCC(=O)O [C5, valeric acid]
Conversion ([1]; 25 °C, 24 h): 8.3% | α-Olefin ([1]; 25 °C, 24 h): 834 µM | α-olefin formed (trapped as 1,2-dibromoalkane) [2]: 834 µM

CCCCCC(=O)O [C6, caproic acid/hexanoic acid]
Conversion ([1]; 4 °C, 72 h): 7.7% | α-Olefin ([1]; 4 °C, 72 h): 772 µM | Conversion ([1]; 25 °C, 24 h): 12% | α-Olefin ([1]; 25 °C, 24 h): 1170 µM

CCCCCCC(=O)O [C7, heptanoic acid]
formation of 1-hexene ([1]; 10 mM heptanoic acid, manual headspace GC-MS): up to 1.3 mM | Conversion ([1]; 4 °C, 72 h): 9.5% | α-Olefin ([1]; 4 °C, 72 h): 946 µM | Conversion ([1]; 25 °C, 24 h): 13% | α-Olefin ([1]; 25 °C, 24 h): 1298 µM

CCCCCCCC(=O)O [C8, caprylic acid/octanoic acid]
Conversion ([1]; 4 °C, 72 h): 1.4% | α-Olefin ([1]; 4 °C, 72 h): 141 µM | Conversion ([1]; 25 °C, 24 h): 3.6% | α-Olefin ([1]; 25 °C, 24 h): 364 µM
